Measured values: patent US12104176B2, “Efficient cell culture system for hepatitis C virus genotype 6A” (priority 2018, dated 2024)
Read-outs that look alike come from different tables or passages of the source. Marks after values point to notes of the source that are not given here.

What was measured:
HK2 (6a) = details: for EC50: Hepatitis C virus, Huh7.5, read-out: EC50, nM (95% CI), HK2 (6a); for Fold to TN, HK2 (6a): fold change in EC50 compared to TN
Description: (§1) Huh7.5 cells were seeded in 96-well plates and then infected with the indicated viruses. TN (1a) was used as a comparative control. 24 h after infection, cells were treated with the indicated NS5A inhibitor for 48 h. Values are means of triplicates±SEM. Concentration-response curves were calculated as previously described^26.
(§2) All concentration-response treatment experiments were performed using established methods^16,18,26. For half-maximal effective concentration (EC50) value calculations, a sigmoidal concentration-response curve was fitted using GraphPad Prism 6^18,26.

TN (1a) = experiment: Concentration-response treatment of infected Huh7.5 cells, TN (1a) control virus; details: Hepatitis C virus, Huh7.5, read-out: EC50, nM (95% CI), TN (1a)
Description: as §1, §2

HK6a (6a) = experiment: Concentration-response treatment of infected Huh7.5 cells, HK6a full-length virus; details: for EC50: Hepatitis C virus, Huh7.5, read-out: EC50, nM (95% CI), HK6a (6a); for Fold to TN, HK6a (6a): fold change in EC50 compared to TN
Description: as §1, §2

[1] = system: HK6a-SOFesc/VELesc, S282T (NS5B)/L28S (NS5A); type: cell-based, HCV genotype 6a; details: HK6a-SOFesc/VELesc (L28S) vs original HK6a
HK2-VELesc, L31V (NS5A) = type: cell-based, HCV genotype 6a; details: HK2-VELesc vs original HK2
[2] = system: HK6a-VELesc/PIB(3 nM)esc, V21A + L28S + L31V (NS5A); type: cell-based, HCV genotype 6a; details: HK6a-VELesc/PIB(3 nM)esc vs original HK6a
HK6a-VELesc, L31V (NS5A) = type: cell-based, HCV genotype 6a; details: HK6a-VELesc vs original HK6a
[3] = system: HK6a-SOFesc, S282T (NS5B); type: cell-based, HCV genotype 6a; details: HK6a-SOFesc vs original HK6a
[4] = system: HK6a-VELesc/PIB(10 nM)esc, L28S + L31V (NS5A); type: cell-based, HCV genotype 6a; details: HK6a-VELesc/PIB(10 nM)esc (L28S+L31V) vs original HK6a
[5] = system: velpatasvir escape viruses of HK2 and HK6a (NS5A-L31V); type: cell-based, HCV genotype 6a; details: drug-free passage stocks of HK2 and HK6a escape viruses, FIG. 3A
[6] = system: HK6a full-length virus (original); details: for outcome of long-term treatment / outcome of long-term treatment (resistance selection): HK6a; for outcome of long-term treatment: velpatasvir (10 nM) and sofosbuvir (570 nM), individually or combined; for day from which no HCV-antigen positive cells were detectable: HK6a original virus
Description: Long-term treatment was performed for HK6a viruses as described in Materials and Methods. (A): Percentage HCV-antigen positive cells determined by evaluation of Core/NS5A-antigen positive versus total number of cells during treatment (y-axis) at the indicated time points (x-axis) (top panel). […] Changes in HCV RNA levels (y-axis) related to day 0 (treatment initiated), were determined from supernatants at corresponding time-points (x-axis) (bottom panel)^18. (B-D): Combination treatment of sofosbuvir (570 nM) and different concentrations of velpatasvir [0.1(10x−EC50), 1(100x−EC50), 10(1000x−EC50) nM], were performed with HK6a escape viruses compared with original viruses.
For long-term DAA treatments, Huh7.5 cells were infected with second-passage supernatants of HK2(H77_3′XSLI)-17m or HK6a(FL)-12m viruses (Table 1, FIG. 1F). […] Treatments were carried out in T25 flasks, and drugs were diluted in medium at the indicated concentration. Drugs were added every 2-3 days when cells were split. HCV RNA levels were determined using supernatants collected at indicated time points as described^18. The percentage of HCV positive cells, at indicated time-points, was determined by immunostaining, and supernatants were collected and stored at −80° C. for further analysis. At day 25 after initiation of treatment, cultures with no detectable HCV positive cells were divided into 2 flasks, and one of the replicates was cultured without drug. These untreated cultures were followed for 2 weeks and if no HCV positive cells were detected by immunostaining, the infection was considered cleared.

HK2cc = experiment: microbe, parasite or virus in culture; type: cell-based; details: Hepatitis C virus; HK2cc in separate experiment of FIG. 4
[7] = system: escape viruses with RAS NS5B-S282T (HK2 and HK6a); type: cell-based, HCV genotype 6a; details: escape viruses generated in drug-free cultures, FIGS. 4A, B
[8] = system: HK2cc recombinant viruses with NS5B-S282T
HK2-SOFesc, S282T (NS5B) = type: cell-based, HCV genotype 6a; details: HK2-SOFesc vs original HK2
[9] = system: HK6a velpatasvir escape virus harboring NS5A-L31V; type: cell-based; details: pibrentasvir 0.3, 3 and 10 nM
[10] = Huh7.5 cells, treated 24 h after infection for 48 h, ni = not inhibited at highest concentration used

COc1ccc2c(c1)[C@@H]1C[C@]1(C(=O)N1[C@@H]3CC[C@H]1CN(C)C3)Cn1c-2c(C2CCCCC2)c2ccc(C(=O)NS(=O)(=O)N(C)C)cc21 [Beclabuvir]
EC50 (HK2 (6a)): 28.1 nM | Fold to TN, HK2 (6a) (HK2 (6a)): 5.3 fold | EC50 (TN (1a)): 5.3 nM | EC50 (HK6a (6a)): 34.1 nM | Fold to TN, HK6a (6a) (HK6a (6a)): 6.4 fold

CC(C)(C)C#Cc1cc(N(C(=O)[C@H]2CC[C@H](C)CC2)[C@H]2CC[C@H](O)CC2)c(C(=O)O)s1 [Lomibuvir]
EC50 (HK2 (6a)): > 4000 nM | EC50, nM (95% CI), HK2 (6a) (HK2 (6a); [10]): ni | EC50 (TN (1a)): 27.6 nM | EC50 (HK6a (6a)): > 4000 nM | EC50, nM (95% CI), HK6a (6a) (HK6a (6a); [10]): ni

COC(=O)N[C@H](C(=O)N1CCC[C@H]1c1nc(-c2ccc(-c3ccc(-c4c[nH]c([C@@H]5CCCN5C(=O)[C@@H](NC(=O)OC)C(C)C)n4)cc3)cc2)c[nH]1)C(C)C [Daclatasvir]
EC50 (TN (1a)): 0.019 nM | EC50 (HK6a (6a)): 0.014 nM

COC(=O)N[C@H](C(=O)N1CC2(CC2)C[C@H]1c1nc(-c2ccc3c(c2)C(F)(F)c2cc(-c4ccc5[nH]c([C@@H]6[C@H]7CC[C@H](C7)N6C(=O)[C@@H](NC(=O)OC)C(C)C)nc5c4)ccc2-3)c[nH]1)C(C)C [Ledipasvir]
EC50 (HK2 (6a)): 0.228 nM | Fold to TN, HK2 (6a) (HK2 (6a)): 45.6 fold | EC50 (TN (1a)): 0.005 nM | EC50 (HK6a (6a)): 0.346 nM | Fold to TN, HK6a (6a) (HK6a (6a)): 69.2 fold

COC(=O)N[C@H](C(=O)N1CCC[C@H]1C(=O)Nc1ccc([C@@H]2CC[C@@H](c3ccc(NC(=O)[C@@H]4CCCN4C(=O)[C@@H](NC(=O)OC)C(C)C)cc3)N2c2ccc(C(C)(C)C)cc2)cc1)C(C)C [Ombitasvir]
EC50 (HK2 (6a)): 0.6 nM | Fold to TN, HK2 (6a) (HK2 (6a)): 300.0 fold | EC50 (TN (1a)): 0.002 nM | EC50 (HK6a (6a)): 2.2 nM | Fold to TN, HK6a (6a) (HK6a (6a)): 1100.0 fold

COc1c(-c2ccc3cc(NS(C)(=O)=O)ccc3c2)cc(-n2ccc(=O)[nH]c2=O)cc1C(C)(C)C [Dasabuvir]
EC50 (HK2 (6a)): 267 nM | Fold to TN, HK2 (6a) (HK2 (6a)): 7.5 fold | EC50 (TN (1a)): 35.5 nM | EC50 (HK6a (6a)): 434 nM | Fold to TN, HK6a (6a) (HK6a (6a)): 12.2 fold

COC[C@H]1C[C@@H](c2nc(-c3ccc4c(c3)COc3cc5c(ccc6nc([C@@H]7CC[C@H](C)N7C(=O)[C@@H](NC(=O)OC)C(C)C)[nH]c65)cc3-4)c[nH]2)N(C(=O)[C@H](NC(=O)OC)c2ccccc2)C1 [Velpatasvir]
Fold-change EC50 to original virus [1]: ~58.000 fold | Fold-change EC50 to original virus ([1]; listed as VEL): 58.105 fold | EC50 (HK2 (6a)): 0.007 nM | Fold to TN, HK2 (6a) (HK2 (6a)): 1.4 fold | Fold-change EC50 to original virus (HK2-VELesc, L31V (NS5A)): 3066 fold | Fold-change EC50 to original virus [2]: ≥992.928^d fold | Fold-change EC50 to original virus (HK6a-VELesc, L31V (NS5A)): 2384 fold | EC50 (TN (1a)): 0.005 nM | Fold-change EC50 to original virus [3]: 1 fold | Fold-change EC50 to original virus [4]: > 899.000 fold | Fold-change EC50 to original virus ([4]; listed as VEL): ≥899.214^d fold | fold increase in EC50 in comparison with the pre-treatment virus [5]: 2- to 3 thousand | EC50 (HK6a (6a)): 0.011 nM | Fold to TN, HK6a (6a) (HK6a (6a)): 2.2 fold | outcome of long-term treatment [6]: failed to fully suppress the infection

CNC(=O)c1c(-c2ccc(F)cc2)oc2cc(N(CCO)S(C)(=O)=O)c(C3CC3)cc12 [HCV-796]
EC50 (HK2 (6a)): 24 nM | Fold to TN, HK2 (6a) (HK2 (6a)): 0.9 fold | EC50 (TN (1a)): 26 nM | EC50 (HK6a (6a)): 131 nM | Fold to TN, HK6a (6a) (HK6a (6a)): 5.0 fold

COC(=O)N[C@H](C(=O)N1CCC[C@H]1c1nc(-c2ccc3c(c2)O[C@@H](c2ccccc2)n2c-3cc3cc(-c4c[nH]c([C@@H]5CCCN5C(=O)[C@@H](NC(=O)OC)C(C)C)n4)ccc32)c[nH]1)C(C)C [Elbasvir]
EC50 (HK2 (6a)): 0.017 nM | Fold to TN, HK2 (6a) (HK2 (6a)): 2.8 fold | EC50 (TN (1a)): 0.006 nM | EC50 (HK6a (6a)): 0.009 nM | Fold to TN, HK6a (6a) (HK6a (6a)): 1.5 fold

CC(C)OC(=O)[C@H](C)N[P@](=O)(OC[C@H]1O[C@@H](n2ccc(=O)[nH]c2=O)[C@](C)(F)[C@@H]1O)Oc1ccccc1 [Sofosbuvir]
EC50 (HK2cc): 653 nM | EC50 (HK2 (6a)): 393 nM | Fold to TN, HK2 (6a) (HK2 (6a)): 0.8 fold | fold increase in EC50 [7]: ≥ 8 fold | fold lower sensitivity compared with HK2cc [8]: 3 to 5 fold | EC50 (TN (1a)): 481 nM | Fold-change EC50 to original virus [3]: ≥8^d fold | Fold-change EC50 to original virus (HK2-SOFesc, S282T (NS5B)): 7.9 fold | EC50 (HK6a (6a)): 513 nM | Fold to TN, HK6a (6a) (HK6a (6a)): 1.1 fold | outcome of long-term treatment [6]: failed to fully suppress the infection

CC(C)OC(=O)[C@@H](C)N[P@@](=O)(OC[C@H]1O[C@@H](n2ccc(=O)[nH]c2=O)[C@](C)(Cl)[C@@H]1O)Oc1ccccc1 [MK-3682]
EC50 (HK2 (6a)): 370 nM | Fold to TN, HK2 (6a) (HK2 (6a)): 0.9 fold | EC50 (TN (1a)): 392 nM | EC50 (HK6a (6a)): 522 nM | Fold to TN, HK6a (6a) (HK6a (6a)): 1.3 fold

COC(=O)N[C@H](C(=O)N1CCC[C@H]1c1nc2cc([C@H]3CC[C@H](c4cc5nc([C@@H]6CCCN6C(=O)[C@@H](NC(=O)OC)[C@@H](C)OC)[nH]c5cc4F)N3c3cc(F)c(N4CCC(c5ccc(F)cc5)CC4)c(F)c3)c(F)cc2[nH]1)[C@@H](C)OC [Pibrentasvir]
Fold-change EC50 to original virus [1]: 250 fold | EC50 (HK2 (6a)): 0.002 nM | Fold to TN, HK2 (6a) (HK2 (6a)): 0.6 fold | Fold-change EC50 to original virus (HK2-VELesc, L31V (NS5A)): 1 fold | outcome of long-term treatment [9]: escaped the treatment at all concentrations | Fold-change EC50 to original virus [2]: 85.500 fold | Fold-change EC50 to original virus (HK6a-VELesc, L31V (NS5A)): 1 fold | EC50 (TN (1a)): 0.004 nM | Fold-change EC50 to original virus [3]: 1 fold | Fold-change EC50 to original virus [4]: 79.000 fold | EC50 (HK6a (6a)): 0.004 nM | Fold to TN, HK6a (6a) (HK6a (6a)): 1.0 fold | day from which no HCV-antigen positive cells were detectable ([6]; pibrentasvir 0.3 nM): 7 days | day from which no HCV-antigen positive cells were detectable ([6]; pibrentasvir 3 nM): 5 days | day from which no HCV-antigen positive cells were detectable ([6]; pibrentasvir 10 nM): 5 days | outcome of long-term treatment (resistance selection) ([6]; PIB 0.3 nM): Infection cleared | outcome of long-term treatment (resistance selection) ([6]; PIB 3 nM): Infection cleared | outcome of long-term treatment (resistance selection) ([6]; PIB 10 nM): Infection cleared
